In US9796711B2, “Substituted pyrazolo[3,4-b]pyridin-6-carboxylic acids and method of use” (AbbVie S.àr.l., priority 2015, dated 2017):
Like-named read-outs stand apart in the source and are kept apart here.

Target: T1, CFTR ΔF508 (Homo sapiens, UniProt P13569, DEL508-508)
T1 construct: bronchial epithelial cells isolated from CF patients homozygous for the CFTR ΔF508 mutation; McGill University; Asterand; University of North Carolina hAEC-CF; host or cells: primary human bronchial epithelial cells from CF patients homozygous for ΔF508
T1 sequence (P13569 with tags, fused parts or gaps DEL508-508): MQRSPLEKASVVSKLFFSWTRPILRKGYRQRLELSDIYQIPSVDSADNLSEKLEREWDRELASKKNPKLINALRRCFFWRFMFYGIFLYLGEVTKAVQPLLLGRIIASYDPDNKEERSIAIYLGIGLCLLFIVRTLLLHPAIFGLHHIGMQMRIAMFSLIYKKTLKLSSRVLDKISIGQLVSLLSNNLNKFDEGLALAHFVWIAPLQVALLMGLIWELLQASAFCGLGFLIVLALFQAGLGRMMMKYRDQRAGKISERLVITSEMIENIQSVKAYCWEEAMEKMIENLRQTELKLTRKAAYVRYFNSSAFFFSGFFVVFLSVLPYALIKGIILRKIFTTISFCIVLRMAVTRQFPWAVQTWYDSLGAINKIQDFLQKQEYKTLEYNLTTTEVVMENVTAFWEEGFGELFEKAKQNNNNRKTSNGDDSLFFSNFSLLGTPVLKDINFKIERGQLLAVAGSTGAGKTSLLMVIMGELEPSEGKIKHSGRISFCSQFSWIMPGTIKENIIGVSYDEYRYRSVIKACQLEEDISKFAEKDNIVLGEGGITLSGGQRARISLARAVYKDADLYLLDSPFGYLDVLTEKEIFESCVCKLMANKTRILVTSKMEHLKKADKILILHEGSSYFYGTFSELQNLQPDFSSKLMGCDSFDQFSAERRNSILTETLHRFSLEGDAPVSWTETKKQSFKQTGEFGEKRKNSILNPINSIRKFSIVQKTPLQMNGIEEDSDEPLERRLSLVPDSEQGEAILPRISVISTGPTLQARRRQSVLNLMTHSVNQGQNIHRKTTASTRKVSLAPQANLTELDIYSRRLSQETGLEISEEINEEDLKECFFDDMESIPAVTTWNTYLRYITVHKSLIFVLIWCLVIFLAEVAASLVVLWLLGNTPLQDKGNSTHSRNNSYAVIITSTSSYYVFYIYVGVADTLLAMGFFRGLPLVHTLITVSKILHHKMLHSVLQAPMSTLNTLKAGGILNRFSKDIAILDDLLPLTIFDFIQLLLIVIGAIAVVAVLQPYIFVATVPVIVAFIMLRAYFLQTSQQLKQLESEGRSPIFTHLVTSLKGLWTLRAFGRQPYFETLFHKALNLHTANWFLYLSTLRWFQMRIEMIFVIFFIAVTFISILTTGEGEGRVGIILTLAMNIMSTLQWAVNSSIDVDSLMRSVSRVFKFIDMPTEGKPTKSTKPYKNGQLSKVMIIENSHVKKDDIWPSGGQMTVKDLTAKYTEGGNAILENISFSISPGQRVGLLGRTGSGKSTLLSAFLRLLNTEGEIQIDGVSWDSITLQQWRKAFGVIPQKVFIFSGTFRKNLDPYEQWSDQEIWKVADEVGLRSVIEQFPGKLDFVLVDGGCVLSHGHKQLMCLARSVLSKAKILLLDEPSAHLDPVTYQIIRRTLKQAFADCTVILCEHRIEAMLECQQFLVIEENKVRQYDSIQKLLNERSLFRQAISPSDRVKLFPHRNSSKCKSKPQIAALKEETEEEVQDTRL
Test: Chronic TECC assay on primary bronchial epithelial cells (corrector, co-corrector and potentiator)
Format: cell-based
Experimental: Primary Bronchial Epithelial Cells Protocol
The TECC (Tranepithelial Clamp Circuit, EP-design) assay measures the functionality of the cystic fibrosis Transmembrane Conductance regulator (CFTR) by measuring the short circuit current (Isc) generated over the basolateral and apical membrane of lung epithelial cells. In TECC the transepithelial potential PD and transepithelial resistance (Rt)) are measured in an open circuit and transformed to Ieq using Ohm's law. 24 Wells can be measured simultaneously allowing a higher throughput compared to Ussing chambers.
For this purpose, bronchial epithelial cells isolated from CF patients homozygous for the CFTR ΔF508 mutation (hAEC-CF, Epithelix, Geneva, Switzerland; McGill University, Montreal, Qc; Asterand, Detroit, Mich.; University of North Carolina, Chapel Hill, N.C.) are plated on type IV collagen-coated Transwell® supports (Costar). Human airway epithelia are generated by provision of an air-liquid interface for 21 days to form well-differentiated polarized cultures that resemble in vivo pseudo-stratified ciliated epithelium (Fulcher, M. L., Gabriel, S., Burns, K. A., Yankaskas, J. R., Randell, S. H., 2005. Well-differentiated human airway epithelial cell cultures. Methods Mol. Med. 107, 183-206). The differentiated cells are treated with test corrector compound(s) (corrector alone or in combination with co-corrector, 4-[(2R,4R)-4-({[1-(2,2-difluoro-1,3-benzodioxol-5-yl)cyclopropyl]carbonyl}amino)-7-methoxy-3,4-dihydro-2H-chromen-2-yl]benzoic acid (G924806/A-1618261) (“acute”) or test corrector compounds, co-corrector and potentiator, N-(3-carbamoyl-5,5,7,7-tetramethyl-4,7-dihydro-5H-thieno[2,3-c]pyran-2-yl)-1H-pyrazole-5-carboxamide GLPG1837, (“chronic”) for 24 hours basolaterally to allow sufficient expression of properly folded CFTR protein on the membrane. All compound plates contained negative controls (DMSO) and positive controls (0.15 μM, 4-[(2R,4R)-4-({[1-(2,2-difluoro-1,3-benzodioxol-5-yl)cyclopropyl]carbonyl}amino)-7-(difluoromethoxy)-3,4-dihydro-2H-chromen-2-yl]benzoic acid).
For electrophysiological recording of the “chronic” experiments, the human airway epithelia are mounted in the TECC heating plate for electrophysiological measurement and kept at 37° C. The epithelia are bathed in a NaCl-Ringer solution (120 mM NaCl, 25 mM NaHCO3, 1.2 mM CaCl2, 1.2 mM MgCl2, 0.8 mM KH2PO4, 0.8 mM K2HPO4, pH 7.4, 5 mM glucose) on both the basolateral and apical sides. Test compounds (corrector, co-corrector, 4-[(2R,4R)-4-({[1-(2,2-difluoro-1,3-benzodioxol-5-yl)cyclopropyl]carbonyl}amino)-7-(difluoromethoxy)-3,4-dihydro-2H-chromen-2-yl]benzoic acid, and potentiator, N-(3-carbamoyl-5,5,7,7-tetramethyl-4,7-dihydro-5H-thieno[2,3-c]pyran-2-yl)-1H-pyrazole-5-carboxamide), are re-added to the recording solution prior to measurement. Apical amiloride is used to inhibit the endogenous ENaC currents while forskolin is applied on both apical and basolateral side to stimulate CFTR. Measurements are done during a 20 minute timeframe with recordings every 2 minutes. The increase in Ieq is used as a measure for the increased CFTR activity, EC50 values can be generated by measuring impact of different concentrations of compound on Ieq on primary cells, for this purpose each transwell is treated with a different compound concentration. Inhibitor-172, an inhibitor specific for CFTR, is used to test the specificity of the tested compounds. Raw data were normalized to percentage activity values using the equation: 100×(Sample−Negative control)/(Positive control−Negative Control).

[1] = chronic TECC, AUC = full area under the curve upon forskolin stimulation, with co-corrector and potentiator, 24 hours
[2] = chronic TECC, Ieq = calculations based on the maximum current, with co-corrector and potentiator, 24 hours
[3] = chronic TECC, Ieq = calculations based on the maximum current, with co-corrector and potentiator, 24 hours, read-out: EC50 (nM) (Ieq)
[4] = chronic TECC, AUC = full area under the curve upon forskolin stimulation, with co-corrector and potentiator, 24 hours, read-out: EC50 (nM) (AUC)

Row | SMILES | % Activity at 1 μM (AUC**) [1] | % Activity at 1 μM (Ieq*) [2] | EC50 [3] | further results
1 | CC(C)OC(=O)N1CC[C@@H]2CN(c3cc(C(=O)O)nc4c3c(C3CCC3)nn4-c3ccccc3)CC[C@@H]21 (racemic) [compound 610, rac-3-cyclobutyl-1-phenyl-4-[(3aR,7aS)-1-{[(propan-2-yl)oxy]carbonyl}octahydro-5H-pyrrolo[3,2-c]pyridin-5-yl]-1H-pyrazolo[3,4-b]pyridine-6-carboxylic acid] | 471% | – | – | –
2 | Cc1cccc(-n2nc(C(C)C)c3c(N4CCC(C#N)CC4)cc(C(=O)O)nc32)c1 [compound 191, 4-(4-cyanopiperidin-1-yl)-1-(3-methylphenyl)-3-(propan-2-yl)-1H-pyrazolo[3,4-b]pyridine-6-carboxylic acid] | – | 220% | 50 nM | –
3 | COC1CCN(c2cc(C(=O)O)nc3c2c(C(C)C)nn3-c2cccc(C)c2)CC1 [compound 192, 4-(4-methoxypiperidin-1-yl)-1-(3-methylphenyl)-3-(propan-2-yl)-1H-pyrazolo[3,4-b]pyridine-6-carboxylic acid] | – | 235% | < 30 nM | –
4 | CC(C)c1nn(-c2ccnc(N3CCOCC3)c2)c2nc(C(=O)O)cc(-c3ccc(N4CCOCC4)cc3)c12 [compound 201, 4-[4-(morpholin-4-yl)phenyl]-1-[2-(morpholin-4-yl)pyridin-4-yl]-3-(propan-2-yl)-1H-pyrazolo[3,4-b]pyridine-6-carboxylic acid] | 254% | – | – | EC50 [4]: < 30 nM
5 | CC(C)c1nn(-c2cccc(N3CCOCC3)c2)c2nc(C(=O)O)cc(-c3cnc(N4CCC(C#N)CC4)nc3)c12 [compound 204, 4-[2-(4-cyanopiperidin-1-yl)pyrimidin-5-yl]-1-[3-(morpholin-4-yl)phenyl]-3-(propan-2-yl)-1H-pyrazolo[3,4-b]pyridine-6-carboxylic acid] | – | 241% | < 30 nM | –
6 | CO[C@H]1CCC[C@@H](n2nc(C(C)C)c3c(-c4ccc(N5CCOCC5)cc4)cc(C(=O)O)nc32)C1 [compound 205, 1-[(1R,3S)-3-methoxycyclohexyl]-4-[4-(morpholin-4-yl)phenyl]-3-(propan-2-yl)-1H-pyrazolo[3,4-b]pyridine-6-carboxylic acid] | – | 140% | > 1000 nM | –
7 | COCC1CCN(c2cc(C(=O)O)nc3c2c(C(C)C)nn3-c2cccc(C)c2)CC1 [compound 227, 4-[4-(methoxymethyl)piperidin-1-yl]-1-(3-methylphenyl)-3-(propan-2-yl)-1H-pyrazolo[3,4-b]pyridine-6-carboxylic acid] | – | 300% | 30 nM | –
8 | COCCC1CCN(c2cc(C(=O)O)nc3c2c(C(C)C)nn3-c2cccc(C)c2)CC1 [compound 228, 4-[4-(2-methoxyethyl)piperidin-1-yl]-1-(3-methylphenyl)-3-(propan-2-yl)-1H-pyrazolo[3,4-b]pyridine-6-carboxylic acid] | – | 280% | < 30 nM | –
9 | CC(C)c1nn(-c2cccc(N3CCOCC3)n2)c2nc(C(=O)O)cc(-c3ccc(N4CCOCC4)cc3)c12 [compound 244, 4-[4-(morpholin-4-yl)phenyl]-1-[6-(morpholin-4-yl)pyridin-2-yl]-3-(propan-2-yl)-1H-pyrazolo[3,4-b]pyridine-6-carboxylic acid] | – | 210% | < 30 nM | –
10 | CC(C)c1nn(-c2cc(F)cc(F)c2)c2nc(C(=O)O)cc(-c3ccc(N4CCOCC4)cc3)c12 [compound 268, 1-(3,5-difluorophenyl)-4-[4-(morpholin-4-yl)phenyl]-3-(propan-2-yl)-1H-pyrazolo[3,4-b]pyridine-6-carboxylic acid] | – | 267% | 25 nM | –
11 | CN(C)C[C@@H](F)C1CCN(c2cc(C(=O)O)nc3c2c(C2CCC2)nn3-c2ccccc2)CC1 [compound 456, 3-cyclobutyl-4-{4-[(1S)-2-(dimethylamino)-1-fluoroethyl]piperidin-1-yl}-1-phenyl-1H-pyrazolo[3,4-b]pyridine-6-carboxylic acid] | – | – | – | EC50 [4]: 120 nM
12 | CCOC(=O)N1CCN(c2cc(C(=O)O)nc3c2c(C2CCC2)nn3-c2ccccc2)CC1 [compound 539, 3-cyclobutyl-4-[4-(ethoxycarbonyl)piperazin-1-yl]-1-phenyl-1H-pyrazolo[3,4-b]pyridine-6-carboxylic acid] | 557% | – | – | –
13 | O=C(O)c1cc(N2CCC(CN3CCCC3)CC2)c2c(C3CCC3)nn(-c3ccccc3)c2n1 [compound 557, 3-cyclobutyl-1-phenyl-4-{4-[(pyrrolidin-1-yl)methyl]piperidin-1-yl}-1H-pyrazolo[3,4-b]pyridine-6-carboxylic acid] | 262% | – | – | % Activity at 3 μM (AUC) (chronic TECC, 3 μM, AUC = full area under the curve upon forskolin stimulation, with co-corrector and potentiator, 24 hours): 384%
14 | O=C(O)c1cc(N2CCC(N3CCOCC3)CC2)c2c(C3CCC3)nn(-c3ccccc3)c2n1 [compound 560, 3-cyclobutyl-4-[4-(morpholin-4-yl)piperidin-1-yl]-1-phenyl-1H-pyrazolo[3,4-b]pyridine-6-carboxylic acid] | – | – | – | EC50: < 30 nM
15 | O=C(O)c1cc(N2CCC(CCN3CCCC3)CC2)c2c(C3CCC3)nn(-c3ccccc3)c2n1 [compound 574, 3-cyclobutyl-1-phenyl-4-{4-[2-(pyrrolidin-1-yl)ethyl]piperidin-1-yl}-1H-pyrazolo[3,4-b]pyridine-6-carboxylic acid] | 190% | – | – | –
16 | O=C(O)c1cc(N2CCC(CCN3CCOCC3)CC2)c2c(C3CCC3)nn(-c3ccccc3)c2n1 [compound 575, 3-cyclobutyl-4-{4-[2-(morpholin-4-yl)ethyl]piperidin-1-yl}-1-phenyl-1H-pyrazolo[3,4-b]pyridine-6-carboxylic acid] | 290% | – | – | EC50: 100 nM
17 | O=C(O)c1cc(N2CCC(N3CCCCC3)CC2)c2c(C3CCC3)nn(-c3ccccc3)c2n1 [compound 576, 4-([1,4′-bipiperidin]-1′-yl)-3-cyclobutyl-1-phenyl-1H-pyrazolo[3,4-b]pyridine-6-carboxylic acid] | 183% | – | – | –
18 | CC(C)c1nn(-c2ccc(F)cc2)c2nc(C(=O)O)cc(N3CCC(C(C)(C)O)CC3)c12 [compound 656, 1-(4-fluorophenyl)-4-[4-(2-hydroxypropan-2-yl)piperidin-1-yl]-3-(propan-2-yl)-1H-pyrazolo[3,4-b]pyridine-6-carboxylic acid] | – | – | – | EC50 [4]: 48 nM
19 | O=C(O)c1cc(N2CCC(N3CCOCC3)CC2)c2c(C3CCC3)nn(-c3ccc(F)cc3)c2n1 [compound 679, 3-cyclobutyl-1-(4-fluorophenyl)-4-[4-(morpholin-4-yl)piperidin-1-yl]-1H-pyrazolo[3,4-b]pyridine-6-carboxylic acid] | 373.3333% | – | – | EC50 [4]: 28 nM
20 | CC(C1CCN(c2cc(C(=O)O)nc3c2c(C2CCC2)nn3-c2ccccc2)CC1)N1CCOCC1 (stereo not shown) [compound 683, 3-cyclobutyl-4-{4-[1-(morpholin-4-yl)ethyl]piperidin-1-yl}-1-phenyl-1H-pyrazolo[3,4-b]pyridine-6-carboxylic acid] | 196.675% | – | – | –
21 | CC1CCN(CCC2CCN(c3cc(C(=O)O)nc4c3c(C3CCC3)nn4-c3ccccc3)CC2)CC1 [compound 687, 3-cyclobutyl-4-{4-[2-(4-methylpiperidin-1-yl)ethyl]piperidin-1-yl}-1-phenyl-1H-pyrazolo[3,4-b]pyridine-6-carboxylic acid] | 263.3333% | – | – | EC50 [4]: 53.5 nM
